Assay results published in patent US10858305B2, “Perillyl alcohol-3-bromopyruvate conjugate and methods of treating cancer” (NeOnc Technologies, Inc., priority 2016, dated 2020).
pIC50: −log10 of the molar value. Entries after “also recorded” stand apart in the source; their conditions may differ.

How the values were obtained:
[1] = target: GAPDH (Homo sapiens, UniProt P04406); assay: GAPDH activity assay, drugs added to cell lysates (cell-free); assay type: biochemical; design: endogenous in cells; host or cells: MDA-MB-231 cell lysate; conditions: for inhibition of GAPDH enzyme activity: cell lysates incubated with drug for 1 hour; for effect of NAC or GSH on drug-induced inhibition of GAPDH activity: cell lysates, 1 mM NAC or GSH
Method: (A) HCT116 cells were treated with 40 μM 3-BP or NEO218 in the presence or absence of 1 mM NAC, 1 mM GSH, or 50 mM methyl-pyruvate (or sodium pyruvate, which produced similar outcomes). Cell viability was determined 24 hours later by MTT assay. (B) HCT116 cells were treated with 30 or 100 μM 3-BP or NEO218. After 30 minutes, cell lysates were prepared and analyzed for GAPDH activity. (C) Lysates from non-drug-treated MDA-MB-231 cells were mixed with 3-BP or NEO218 in the presence or absence of NAC or GSH at the concentrations mentioned in A. After 1 hour of incubation, GAPDH activity was determined. GAPDH activity in the absence of drug treatment was set at 100% (corresponding to 0.06 units/min×10^6 cells).
The capacity of NEO218 to inhibit the enzymatic function of GAPDH in a cell-free system was investigated. Cell lysates were incubated with NEO218 and 3-BP (individually) for 1 hour, and enzymatic activity of GAPDH (glyceraldehyde-3-phosphate dehydrogenase) was determined. Increasing concentrations of NEO218 and 3-BP were applied. Separately, 50 μM NEO218 and 3-BP, respectively, were applied together with 1 mM NAC or GSH. The enzymatic activity of GAPDH was determined with the use of a commercially available GAPDH activity assay kit.
Enzymatic activity of GAPDH in vitro was measured with the Colorimetric GAPDH Assay kit (ScienCell Research Laboratories, Carlsbad, Calif.). This assay is based on the oxidization of β-NADH to β-NAD in the presence of 3-phosphoglyceric acid, ATP and GAPDH. GAPDH activity is determined by assaying the rate of NADH oxidation, which is proportional to the reduction in absorbance at 340 nm over time (ΔA340 nm/min). One hundred thousand cells were lysed in 100 μL cell lysis buffer and incubated with the above components. Changes in absorbance over 10 minutes were calculated and normalized to untreated controls. Data are presented as percentage of controls. Two types of drug treatments were performed: in one approach, drugs were added to proliferating cells for 30 minutes under regular cell culture conditions; in the other approach, drugs were added to cell lysates for 1 hour at 4° C.

[2] = tested on: HCT116 cells; assay: FACS analysis for annexin V and propidium iodide; assay type: cell-based, human; conditions: for incorporation of PI (necrosis) versus annexin V (apoptosis): 2, 4 or 8 hours of treatment; for earliest detection of shift to PI-positive quadrant after onset of treatment: HCT116, 30 μM; for PI-positive cells at 8 hours: HCT116, 8 hours
Method: (A) FACS analysis of HCT116 cells after treatment for 2, 4, or 8 hours with vehicle, 30 μM 3-BP, 30 μM NEO218, or 1 μM staurosporine (STS). […] (B) Western blot analysis of apoptotic markers. In the top section, MDA-MB-231 cells were treated with 30 μM NEO218 or 1 μM STS for various time points. In the lower section, HCT116 cells were treated with the indicated concentrations of 3-BP, NEO218, or STS for 16 hours. In all cases cell lysates were prepared and analyzed for the well-established apoptotic markers cleaved PARP, cleaved (i.e., activated) caspase 7 (cl. C-7), and phosphorylated (i.e., active) H2AX. Actin was used as a loading control. (C) HCT116 cells were pretreated with 50 μM Z-VAD-FMK for one hour, followed by the addition of increasing concentrations of 3-BP or NEO218. Cell viability was determined by MTT assay 24 hours later. Data points are averages from n=3.
In the absence of indications that apoptotic mechanisms played a significant role in cell death induced by NEO218, necrosis was investigated as a potential key mechanism. The distinction between apoptotic and necrotic cell death was made by measuring annexin V staining (a marker of apoptosis) and PI (propidium iodide) staining (a marker of necrosis) of drug-treated cells, in comparison to non-drug-treated cells (as a control). Measurements of annexin V and PI were done by FACS analysis after 2, 4, or 8 hours of treatment. Cells were treated with NEO218, 3-BP, and staurosporine (individually), and incorporation of propidium iodide (PI, a marker of necrotic cell death) or annexin V (a marker for apoptosis) was determined by fluorescence-activated cell sorting.
The results are organized in FIG. 8 as follows: no treatment (top row), 3-BP (second row), NEO218 (third row), and staurosporine (bottom row).
Characterization of cell death was performed by flow cytometry using the Alexa Fluor® 488 Annexin V/Dead Cell Apoptosis kit (Thermo Fisher Scientific). This kit contains recombinant, green fluorophore-conjugated annexin V, which reacts with apoptotic cells, and DNA-binding, red-fluorescent propidium iodide (PI), which is impermeant to live and apoptotic cells, but stains dead cells. The different cell populations can be distinguished by green fluorescence (apoptotic cells), red fluorescence (necrotic/dead cells), and no fluorescence (live cells) during flow cytometry with 488 nm laser excitation. Control or drug-treated cells were processed as per manufacturer's instructions, followed by flow cytometry of 10,000 cells per point with an LSR II (BD Biosciences, San Jose, Calif.) at the USC Flow Cytometry Core Facility.

[3] = tested on: HCT116 3-BP survivors (MCT-1-negative) and parental cells; assay: Selection of 3-BP survivors from HCT116 cells and MTT chemosensitivity; assay type: cell-based, human
Method: (A) Immunostaining of HCT116 cells in the absence of any drug treatment (parental cells; left panel) and after 2-week recovery from highly toxic 48-hour treatment with 40 μM 3-BP (3-BP survivors; right panel). Arrows point to a few apparently MCT-1-negative cells among the otherwise MCT-1-positive parental population. Note preferential staining of the cell membrane in the positive cells, consistent with the known transmembrane location of MCT-1; no such staining could be detected in the 3-BP survivors. (B) Western blot analysis of MCT-1 expression levels two weeks after 48-hour treatment of cells with increasing concentrations of 3-BP. […] GAPDH was used as a loading control. (C) Chemosensitivity of 3-BP survivors were compared to parental cells in MTT assays. Both populations were treated with increasing concentrations of 3-BP or NEO218. Survival of untreated cells was set at 100% (n≥3±SE).
Upon closer inspection of individual cells by immunohistochemistry, we detected a small number of apparently MCT-1-negative cells among the otherwise mostly MCT-1-positive population (FIG. 20A). This aspect was investigated further by treating HCT116 cells with 40 μM, representing a concentration that reduces apparent viability by 75% in MTT assays (FIG. 17A) and blocks colony formation by 99% in CFAs. […] These cells, which we called 3-BP survivors, were further analyzed. Intriguingly, no MCT-1 expression could be detected in these cells, neither by immunohistochemistry (FIG. 20A) nor by Western blot (FIG. 20B). […] Intriguingly, NEO218 had no such effect.

Sequence of GAPDH (P04406 whole entry): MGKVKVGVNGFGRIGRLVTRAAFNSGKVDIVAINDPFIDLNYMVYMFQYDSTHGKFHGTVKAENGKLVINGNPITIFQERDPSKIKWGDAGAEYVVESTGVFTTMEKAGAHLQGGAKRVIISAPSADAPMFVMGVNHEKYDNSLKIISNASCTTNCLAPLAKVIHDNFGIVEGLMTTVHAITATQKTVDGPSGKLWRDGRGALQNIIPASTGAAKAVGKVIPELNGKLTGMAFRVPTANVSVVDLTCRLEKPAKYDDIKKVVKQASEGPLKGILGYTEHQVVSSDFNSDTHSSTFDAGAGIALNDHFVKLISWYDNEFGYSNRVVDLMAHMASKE

| Structure (SMILES) | inhibition of GAPDH enzyme activity [1] | effect of NAC or GSH on drug-induced inhibition of GAPDH activity [1] | incorporation of PI (necrosis) versus annexin V (apoptosis) [2] | incorporation of PI (necrosis) versus annexin V (apoptosis) ([2]; listed as 3-GP) | earliest detection of shift to PI-positive quadrant after onset of treatment [2] | PI-positive cells at 8 hours [2] | pIC50 ([3]; Homo sapiens, HCT-116, read-out: IC50 (MTT)) | time to initiation of cell death ([2]; FIG. 8 and LDH time course of FIG. 4) | sensitivity of 3-BP survivors ([3]; 3-BP survivors of HCT116, MTT) | surviving cells after treatment ([3]; parental HCT116, 40 μM) |
| --- | --- | --- | --- | --- | --- | --- | --- | --- | --- | --- |
| O=C(O)C(=O)CBr [3-BP, 3-bromopyruvate] | potent inhibition of GAPDH enzyme activity; also recorded: potently decreased enzymatic GAPDH activity | effectively prevented the drug-induced inhibition of GAPDH activity; also recorded: completely prevented | vigorous incorporation of PI, but very little annexin V | move straight from the bottom left quadrant to the upper right quadrant | 2 h | the majority of cells was PI-positive | < 4.00 | – | – | – |
| C=C(C)[C@@H]1CC=C(COC(=O)C(=O)CBr)CC1 [NEO218, 3-bromo-2-oxo-propionic acid 4-isopropenyl-cyclohex-1-enylmethyl ester] | potent inhibition of GAPDH enzyme activity; also recorded: potently decreased enzymatic GAPDH activity | effectively prevented the drug-induced inhibition of GAPDH activity; also recorded: completely prevented | move straight from the bottom left quadrant to the upper right quadrant; also recorded: vigorous incorporation of PI, but very little annexin V | – | 2 h | the majority of cells was PI-positive | – | 1 to 2 h | retained their high sensitivity toward NEO218 | did not leave any surviving cells |
